In patent US10759785B2, “Compounds” (ENTERPRISE THERAPEUTICS LIMITED, priority 2016, dated 2020):
Where a name gives a salt, the structure may show the parent alone.

Assay: Microsomal stability (rat microsomes)
Format: in vitro ADME
Conditions: pH 7.4, 1 μM test compound, 0.5 mg/mL protein, 1 mM NADPH, 37° C., read-out: Averages. Mic Half Life Rat
Description: Example 28—Microsomal Stability
Microsomes (rat and human) were obtained from Bioreclamation. Test compound stock solutions in DMSO (10 mM) were diluted with DMSO to 2 mM. Further dilution was completed to achieve a 100 μM stock (final concentrations; 91.5% Acetonitrile: 8.5% DMSO). Final test compound concentration in incubation was 1 μM (<0.1% DMSO). The following probe substrates were used: verapamil, propranolol, metoprolol and phenacetin (rat) at a final incubation concentration of 1 μM. Assay buffer—Solution 1: 17.4 g potassium phosphate dibasic anhydrous (K2HPO4, 0.1 M) dissolved in 1 L deionised water. Solution 2: 13.6 g potassium phosphate monobasic anhydrous (KH2PO4, 0.1 M) dissolved in 1 L deionised water. Potassium phosphate solutions 1 and 2 were combined to form a pH 7.42 solution at 37° C. pH 7.4 with 2 mM magnesium chloride. NADPH (10 mM)—diluted in deionised water. Frozen microsomes were thawed at 37° C. Microsomes were diluted in assay buffer to achieve a final protein concentration of 0.5 mg/mL and 1 mM NADPH. The following procedure was completed on a Perkin Elmer Janus robotic platform in 96 well format: The microsomal incubation plate was transferred to a heater shaker at 300 rpm and solution heated to 37° C. for 10 min pre-warm. A no co-factor control at 0 and 45 min and one replicates of each test compound was included in every assay. Microsomes were incubated at 37° C., on a shaker set at 300 rpm throughout the assay. At each timepoint (0, 5, 15, 30, 45 min) 50 μL of sample was removed from the 96-well and added to 200 μL of quench solution (acetonitrile containing 0.1% formic acid and imipramine/labetalol, 200 nM). Samples were diluted 1:1 with water using the Janus Robot and analysed by LC-MS/MS.

half-life at 1 μM | Structure (SMILES)
4 min | CCn1c(CNC(=O)c2nc(Br)cnc2N)[n+](C)c2ccc(Cl)cc21.O=CO.O=C[O-] [Example 11, 2-{[(3-amino-6-bromopyrazin-2-yl)formamido]methyl}-6-chloro-1-ethyl-3-methyl-1H-1,3-benzodiazol-3-ium formic acid formate]
> 138 min | CCn1c(CNC(=O)c2nc(Br)cnc2N)[n+](CC)c2ccc(-c3cnn(C4CCN(C[C@H](O)[C@@H](O)[C@H](O)[C@H](O)CO)CC4)c3)cc21.O=CO.[Cl-] [Example 23, 2-{[(3-amino-6-bromopyrazin-2-yl)formamido]methyl}-1,3-diethyl-6-(1-{1-[(2S,3R,4R,5R)-2,3,4,5,6-pentahydroxyhexyl]piperidin-4-yl}-1H-pyrazol-4-yl)-1H-1,3-benzodiazol-3-ium formic acid chloride]
3 min | CCc1cnc(N)c(C(=O)NCc2n(CC)c3cc(OC)ccc3[n+]2C)n1.[I-] [Example 8, 2-{[(3-amino-6-ethylpyrazin-2-yl)formamido]methyl}-1-ethyl-6-methoxy-3-methyl-1H-1,3-benzodiazol-3-ium iodide]
> 138 min | CCn1c(CNC(=O)c2nc(Br)cnc2N)[n+](CC)c2ccc(OCCN)cc21.Cl.[Cl-] [Example 25, 2-{[(3-Amino-6-bromopyrazin-2-yl)formamido]methyl}-6-(2-aminoethoxy)-1,3-diethyl-1H-1,3-benzodiazol-3-ium hydrochloride chloride]
7 min | CCn1c(CNC(=O)c2nc(C)cnc2N)[n+](C)c2ccc(OC)cc21.[I-] [Example 7, 2-{[(3-amino-6-methylpyrazin-2-yl)formamido]methyl}-1-ethyl-6-methoxy-3-methyl-1H-1,3-benzodiazol-3-ium iodide]
4 min | CCn1c(CNC(=O)c2nc(Cl)cnc2N)[n+](C)c2ccc(OC)cc21.[I-] [Example 5, 2-{[(3-amino-6-chloropyrazin-2-yl)formamido]methyl}-1-ethyl-6-methoxy-3-methyl-1H-1,3-benzodiazol-3-ium iodide]
< 3 min | CCn1c(CNC(=O)c2nc(C#N)cnc2N)[n+](CC)c2ccc(OC)cc21 [Example 26, 2-{[(3-amino-6-cyanopyrazin-2-yl)formamido]methyl}-1,3-diethyl-6-methoxy-1H-1,3-benzodiazol-3-ium formate]
3 min | CCn1c(CNC(=O)c2nc(SC)cnc2N)[n+](C)c2ccc(OC)cc21.[I-] [Example 9, 2-({[3-amino-6-(methylsulfanyl)pyrazin-2-yl]formamido}methyl)-1-ethyl-6-methoxy-3-methyl-1H-1,3-benzodiazol-3-ium iodide]
4 min | CCn1c(CNC(=O)c2nc(Br)cnc2N)[n+](CCO)c2ccc(OC)cc21.O=C[O-] [Example 3, 2-{[(3-amino-6-bromopyrazin-2-yl)formamido]methyl}-1-ethyl-3-(2-hydroxyethyl)-6-methoxy-1H-1,3-benzodiazol-3-ium formate]
11 min | CCn1c(CNC(=O)c2nc(Br)cnc2N)[n+](CC)c2ccc(C(=O)OC)cc21.[I-] [Example 15, 2-{[(3-amino-6-bromopyrazin-2-yl)formamido]methyl}-1,3-diethyl-6-(methoxycarbonyl)-1H-1,3-benzodiazol-3-ium iodide]
61 min | CCn1c(CNC(=O)c2nc(Br)cnc2N)[n+](CC)c2ccc(C(=O)N[C@H]3CCOC3=O)cc21 [Example 18, 2-{[(3-amino-6-bromopyrazin-2-yl)formamido]methyl}-1,3-diethyl-6-{[(3S)-2-oxooxolan-3-yl]carbamoyl}-1H-1,3-benzodiazol-3-ium formate]
11 min | CCn1c(CNC(=O)c2nc(Br)cnc2N)[n+](C)c2ccc(OC(F)(F)F)cc21.O=C[O-] [Example 14, 2-{[(3-amino-6-bromopyrazin-2-yl)formamido]methyl}-1-ethyl-3-methyl-6-(trifluoromethoxy)-1H-1,3-benzodiazol-3-ium formate]
29 min | CCn1c(CNC(=O)c2nc(Br)cnc2N)[n+](CC)c2ccc(C(=O)N[C@@H]3CCOC3=O)cc21 [Example 17, 2-{[(3-amino-6-bromopyrazin-2-yl)formamido]methyl}-1,3-diethyl-6-{[(3R)-2-oxooxolan-3-yl]carbamoyl}-1H-1,3-benzodiazol-3-ium formate]
5 min | CCn1c(CNC(=O)c2nc(Br)cnc2N)[n+](C)c2ccc(C(F)(F)F)cc21.[I-] [Example 13, 2-{[(3-amino-6-bromopyrazin-2-yl)formamido]methyl}-1-ethyl-3-methyl-6-(trifluoromethyl)-1H-1,3-benzodiazol-3-ium iodide]
3 min | CCn1c(CNC(=O)c2nc(Br)cnc2N)[n+](CC)c2ccc(OC)cc21.O=C[O-] [Example 2, 2-{[(3-amino-6-bromopyrazin-2-yl)formamido]methyl}-1,3-diethyl-6-methoxy-1H-1,3-benzodiazol-3-ium formate]
8 min | CCn1c(CNC(=O)c2nc(Br)cnc2N)[n+](CCOCCOCCO)c2ccc(OC)cc21.O=C[O-] [Example 4, 2-{[(3-amino-6-bromopyrazin-2-yl)formamido]methyl}-1-ethyl-3-{2-[2-(2-hydroxyethoxy)ethoxy]ethyl}-6-methoxy-1H-1,3-benzodiazol-3-ium formate]
> 138 min | CCn1c(CNC(=O)c2nc(Br)cnc2N)[n+](CC)c2ccc(-c3cnn(C4CCN(C(=N)N)CC4)c3)cc21.O=CO.O=C[O-] [Example 22, 2-{[(3-amino-6-bromopyrazin-2-yl)formamido]methyl}-6-[1-(1-carbamimidoylpiperidin-4-yl)-1H-pyrazol-4-yl]-1,3-diethyl-1H-1,3-benzodiazol-3-ium formic acid formate]
4 min | CCn1c(CNC(=O)c2nc(Br)cnc2N)[n+](C)c2ccc(F)cc21.O=C[O-] [Example 12, 2-{[(3-amino-6-bromopyrazin-2-yl)formamido]methyl}-1-ethyl-6-fluoro-3-methyl-1H-1,3-benzodiazol-3-ium formate]
77 min | CCn1c(CNC(=O)c2nc(Br)cnc2N)[n+](CC)c2ccc(-c3cnn(C4CCNCC4)c3)cc21.Cl.[I-] [Example 21, 2-{[(3-amino-6-bromopyrazin-2-yl)formamido]methyl}-1,3-diethyl-6-[1-(piperidin-4-yl)-1H-pyrazol-4-yl]-1H-1,3-benzodiazol-3-ium hydrochloride iodide]

Structure (SMILES) | half-life at 1 μM
CCn1c(CNC(=O)c2nc(Br)cnc2N)[n+](CC)c2ccc(OCCNC(=O)OC(C)(C)C)cc21.O=C[O-] [Example 24, 2-{[(3-amino-6-bromopyrazin-2-yl)formamido]methyl}-6-(2-{[(tert-butoxy)carbonyl]amino}ethoxy)-1,3-diethyl-1H-1,3-benzodiazol-3-ium formate] | 37 min
CCn1c(CNC(=O)c2nc(Br)cnc2N)[n+](CC)c2ccc(-c3cnn(C4CCN(C(=O)OC(C)(C)C)CC4)c3)cc21.[I-] [Example 20, 2-{[(3-amino-6-bromopyrazin-2-yl)formamido]methyl}-6-(1-{1-[(tert-butoxy)carbonyl]piperidin-4-yl}-1H-pyrazol-4-yl)-1,3-diethyl-1H-1,3-benzodiazol-3-ium iodide] | 61 min
